Assay results reported in ChEMBL document CHEMBL5143597, “Design and synthesis of novel spirocyclic carboxylic acids as potent and orally bioavailable DGAT1 inhibitors and their biological evaluation” (Bioorg Med Chem Lett, 2022).

How the values were obtained:
[1] = Inhibition of human […] in HepG2 cells assessed as inhibition of triglyceride synthesis at 300 nM incubated for 1 hrs followed by 13C-addition of 13C-oleic acid pre-complexed with fatty acid free BSA for 6 hrs by LC/MS/MS analysis; conditions: time 7.0 hrs
[2] = Inhibition of human […] in HepG2 cells assessed as inhibition of triglyceride synthesis at 100 nM incubated for 1 hrs followed by 13C-addition of 13C-oleic acid pre-complexed with fatty acid free BSA for 6 hrs by LC/MS/MS analysis; conditions: time 7.0 hrs
[3] = Inhibition of human […] in HepG2 cells assessed as inhibition of triglyceride synthesis at 1 uM incubated for 1 hrs followed by 13C-addition of 13C-oleic acid pre-complexed with fatty acid free BSA for 6 hrs by LC/MS/MS analysis; conditions: time 7.0 hrs
[4] = target: 2-acylglycerol O-acyltransferase 2 (Homo sapiens) (UniProt Q3SYC2); experiment: Inhibition of recombinant human MGAT2 expressed in Sf9 cell membrane assessed as inhibition of triglyceride synthesis at 10 uM for 1 hr by LC-MS-based mass spectrophotometric analysis
2-acylglycerol O-acyltransferase 2 (Homo sapiens), sequence (Q3SYC2 whole entry, looked up): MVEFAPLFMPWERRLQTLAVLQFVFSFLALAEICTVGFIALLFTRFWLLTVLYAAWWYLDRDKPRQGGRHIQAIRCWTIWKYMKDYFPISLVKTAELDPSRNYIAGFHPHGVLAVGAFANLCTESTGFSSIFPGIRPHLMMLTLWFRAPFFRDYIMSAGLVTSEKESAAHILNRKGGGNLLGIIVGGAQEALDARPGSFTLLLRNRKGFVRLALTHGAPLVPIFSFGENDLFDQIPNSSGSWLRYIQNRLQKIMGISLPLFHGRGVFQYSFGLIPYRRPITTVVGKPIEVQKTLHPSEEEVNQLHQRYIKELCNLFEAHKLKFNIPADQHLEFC

[5] = Solubility of compound in PBS at pH 7.4 incubated for 4 hrs under shaking condition by UV absorbance based analysis; assay type: physicochemical
CYP3A4 = CYP3A4 (Homo sapiens, UniProt P08684); experiment: Inhibition of recombinant human CYP3A4 at 25 uM by fluorescence plate reader analysis; assay type: ADME
CYP3A4, sequence (P08684 whole entry): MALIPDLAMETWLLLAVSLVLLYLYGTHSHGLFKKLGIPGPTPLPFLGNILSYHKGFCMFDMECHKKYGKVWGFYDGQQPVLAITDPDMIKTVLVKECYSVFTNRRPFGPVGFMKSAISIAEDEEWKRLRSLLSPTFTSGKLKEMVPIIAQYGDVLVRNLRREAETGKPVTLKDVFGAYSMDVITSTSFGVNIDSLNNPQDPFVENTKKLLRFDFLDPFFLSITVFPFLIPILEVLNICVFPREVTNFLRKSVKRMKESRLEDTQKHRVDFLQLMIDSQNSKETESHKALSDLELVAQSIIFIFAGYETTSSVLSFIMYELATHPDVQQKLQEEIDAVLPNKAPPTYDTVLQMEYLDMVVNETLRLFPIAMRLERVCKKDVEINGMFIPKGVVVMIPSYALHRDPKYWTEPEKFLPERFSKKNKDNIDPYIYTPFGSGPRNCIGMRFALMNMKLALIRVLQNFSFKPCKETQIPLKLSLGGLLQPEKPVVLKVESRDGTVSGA

[6] = Solubility of compound in PBS at pH 4 incubated for 4 hrs under shaking condition by UV absorbance based analysis; assay type: physicochemical
[7] = Solubility of compound in PBS at pH 9 incubated for 4 hrs under shaking condition by UV absorbance based analysis; assay type: physicochemical
[8] = Solubility of compound in PBS at pH 2 incubated for 4 hrs under shaking condition by UV absorbance based analysis; assay type: physicochemical
CYP1A2 = target: T1, CYP1A2 (Homo sapiens, UniProt P05177); experiment: Inhibition of recombinant human CYP1A2 at 25 uM by fluorescence plate reader analysis; assay type: ADME
T1 sequence (P05177 whole entry): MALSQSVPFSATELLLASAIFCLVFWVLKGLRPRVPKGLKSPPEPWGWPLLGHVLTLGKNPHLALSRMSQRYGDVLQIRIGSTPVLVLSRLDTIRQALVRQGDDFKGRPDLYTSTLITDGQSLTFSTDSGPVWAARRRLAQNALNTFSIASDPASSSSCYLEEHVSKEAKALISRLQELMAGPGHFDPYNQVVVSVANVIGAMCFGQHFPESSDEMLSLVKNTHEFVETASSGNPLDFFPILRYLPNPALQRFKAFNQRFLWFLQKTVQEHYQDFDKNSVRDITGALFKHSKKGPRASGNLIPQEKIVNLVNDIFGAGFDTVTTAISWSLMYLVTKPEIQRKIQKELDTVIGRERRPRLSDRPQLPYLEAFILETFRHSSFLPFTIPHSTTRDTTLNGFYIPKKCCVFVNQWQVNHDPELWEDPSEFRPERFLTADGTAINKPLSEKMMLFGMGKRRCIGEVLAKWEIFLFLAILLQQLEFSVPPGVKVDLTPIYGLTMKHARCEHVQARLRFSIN

Row | inhibition [1] [%] | inhibition [2] [%] | inhibition [3] [%] | inhibition [4] [%] | solubility at 4 h [5] [µM] | inhibition at 25 µM (CYP3A4) [%] | solubility at 4 h [6] [µM] | solubility at 4 h [7] [µM] | solubility at 4 h [8] [µM] | inhibition at 25 µM (CYP1A2) [%] | SMILES
1 | 94 | 88 | 96 | 16 | – | – | – | – | – | – | O=C(Nc1ccc(C2CCC3(CC2)CC(C(=O)O)C3)cc1)c1nnc(Nc2ccc(F)c(F)c2)o1 (stereo not given)
2 | – | – | – | – | 1060 | 10 | 36 | 723 | 179 | 12 | O=C(Nc1ccc(N2CCC3(CC2)CC(C(=O)[O-])C3)nc1)c1nnc(Nc2ccc(F)c(F)c2)o1.[Na+]
